{"source": "patent US7138361B2", "about": "“Herbicidal heterocycles” (E. I. du Pont de Nemours and Company, priority 2000, dated 2006)", "assay_type_in_all_cases": "in vivo", "key": {"[1]": {"test_system": "wild oat (Avena fatua)", "assay": "Test B postemergence", "summary_of_the_method": "(§1)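 Preemergence: seeds planted and treated with test chemicals in non-phytotoxic solvent with surfactant; postemergence on plants 2–18 cm (1- to 4-leaf stage). Kept in greenhouse 13–15 days, then visually rated against controls on a 0 (no effect) to 100 (complete control) scale.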"}, "[2]": {"test_system": "barnyardgrass (Echinochloa crus-galli)", "assay": "Test B postemergence", "summary_of_the_method": "as §1"}, "[3]": {"test_system": "corn (Zea mays)", "assay": "Test B postemergence", "summary_of_the_method": "as §1"}, "[4]": {"test_system": "Surinam grass (Brachiaria decumbens)", "assay": "Test B postemergence", "summary_of_the_method": "as §1"}, "[5]": {"test_system": "velvetleaf (Abutilon theophrasti)", "assay": "Test B postemergence", "summary_of_the_method": "as §1"}, "[6]": {"test_system": "morning glory (Ipomoea hederacea)", "assay": "Test B postemergence", "summary_of_the_method": "as §1"}, "[7]": {"test_system": "wheat (Triticum aestivum)", "assay": "Test B postemergence", "summary_of_the_method": "as §1"}, "[8]": {"test_system": "giant foxtail (Setaria faberii)", "assay": "Test B postemergence", "summary_of_the_method": "as §1"}, "[9]": {"test_system": "lambsquarters (Chenopodium album)", "assay": "Test B postemergence", "summary_of_the_method": "as §1"}, "[10]": {"test_system": "pigweed (Amaranthus retroflexus)", "assay": "Test B postemergence", "summary_of_the_method": "as §1"}, "[11]": {"test_system": "crabgrass (Digitaria sanguinalis)", "assay": "Test C postemergence", "summary_of_the_method": "(§2)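 Pre- and postemergence treatments used a non-phytotoxic solvent/surfactant formulation; post-treated plants measured 2 to 18 cm. Greenhouse hold 12–14 d; % control estimated visually relative to controls.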"}, "[12]": {"test_system": "corn (Zea mays)", "assay": "Test C postemergence", "summary_of_the_method": "as §2"}, "[13]": {"test_system": "Surinam grass (Brachiaria decumbens)", "assay": "Test C postemergence", "summary_of_the_method": "as §2"}, "[14]": {"test_system": "woolly cupgrass (Eriochloa villosa)", "assay": "Test C postemergence", "summary_of_the_method": "as §2"}, "[15]": {"test_system": "velvetleaf (Abutilon theophrasti)", "assay": "Test C postemergence", "summary_of_the_method": "as §2"}, "[16]": {"test_system": "soybean (Glycine max)", "assay": "Test C postemergence", "summary_of_the_method": "as §2"}, "[17]": {"test_system": "cocklebur (Xanthium strumarium)", "assay": "Test C postemergence", "summary_of_the_method": "as §2"}, "[18]": {"test_system": "bermudagrass (Cynodon dactylon)", "assay": "Test C postemergence", "summary_of_the_method": "as §2"}, "[19]": {"test_system": "yellow nutsedge (Cyperus esculentus)", "assay": "Test C postemergence", "summary_of_the_method": "as §2"}, "[20]": {"test_system": "kochia (Kochia scoparia)", "assay": "Test C postemergence", "summary_of_the_method": "as §2"}, "[21]": {"test_system": "johnsongrass (Sorghum halepense)", "assay": "Test C postemergence", "summary_of_the_method": "as §2"}, "[22]": {"test_system": "giant foxtail (Setaria faberii)", "assay": "Test C postemergence", "summary_of_the_method": "as §2"}, "[23]": {"test_system": "pigweed (Amaranthus retroflexus)", "assay": "Test C postemergence", "summary_of_the_method": "as §2"}, "[24]": {"conditions": "Rate 125 g/ha, scale 0 to 100, 0 no effect, 100 complete control"}, "[25]": {"conditions": "Rate 500 g/ha, scale 0 (no effect) to 100 (complete control), 13 to 15 days"}, "[26]": {"conditions": "Rate 250 g/ha, scale 0 to 100 (0 no effect, 100 complete control)"}, "[27]": {"conditions": "Rate 500 g/ha, scale 0 to 100 (0 no effect, 100 complete control)"}}, "data": [{"smiles": "CCC(CC)c1ccn(C2CCN(c3ccc(Br)c(OC)c3)C2=O)n1", "note": "(stereo not shown) [Compound 143]", "values": [{"measurement": "Plant response rating, Wild Oat", "setting": "[1]; [24]", "result": 0}, {"measurement": "Plant response rating, Wild Oat", "setting": "[1]; [25]", "result": 0}, {"measurement": "Plant response rating, Barnyardgrass", "setting": "[2]; [24]", "result": 0}, {"measurement": "Plant response rating, Barnyardgrass", "setting": "[2]; [25]", "result": 70}, {"measurement": "Plant response rating, Corn", "setting": "[3]; [24]", "result": 0}, {"measurement": "Plant response rating, Corn", "setting": "[3]; [25]", "result": 0}, {"measurement": "Plant response rating, Surinam grass", "setting": "[4]; [24]", "result": 0}, {"measurement": "Plant response rating, Surinam grass", "setting": "[4]; [25]", "result": 0}, {"measurement": "Plant response rating, Velvetleaf", "setting": "[5]; [24]", "result": 50}, {"measurement": "Plant response rating, Velvetleaf", "setting": "[5]; [25]", "result": 70}, {"measurement": "Plant response rating, Morningglory", "setting": "[6]; [24]", "result": 30}, {"measurement": "Plant response rating, Morningglory", "setting": "[6]; [25]", "result": 100}, {"measurement": "Plant response rating, Wheat", "setting": "[7]; [24]", "result": 0}, {"measurement": "Plant response rating, Wheat", "setting": "[7]; [25]", "result": 0}, {"measurement": "Plant response rating, Foxtail, Giant", "setting": "[8]; [24]", "result": 30}, {"measurement": "Plant response rating, Foxtail, Giant", "setting": "[8]; [25]", "result": 80}, {"measurement": "Plant response rating, Lambsquarters", "setting": "[9]; [24]", "result": 80}, {"measurement": "Plant response rating, Lambsquarters", "setting": "[9]; [25]", "result": 100}, {"measurement": "Plant response rating, Pigweed", "setting": "[10]; [24]", "result": 70}, {"measurement": "Plant response rating, Pigweed", "setting": "[10]; [25]", "result": 90}, {"measurement": "Plant response rating, Crabgrass", "setting": "[11]; Rate 62 g/ha, scale 0 to 100", "result": 40}, {"measurement": "Plant response rating, Crabgrass", "setting": "[11]; [26]", "result": 70}, {"measurement": "Plant response rating, Crabgrass", "setting": "[11]; [27]", "result": 70}, {"measurement": "Plant response rating, Corn", "setting": "[12]; Rate 62 g/ha, scale 0 to 100", "result": 0}, {"measurement": "Plant response rating, Corn", "setting": "[12]; [26]", "result": 0}, {"measurement": "Plant response rating, Corn", "setting": "[12]; [27]", "result": 30}, {"measurement": "Plant response rating, Corn", "setting": "[12]; scale 0 to 100", "result": 0}, {"measurement": "Plant response rating, Surinam grass", "setting": "[13]; Rate 62 g/ha, scale 0 to 100", "result": 20}, {"measurement": "Plant response rating, Surinam grass", "setting": "[13]; [24]", "result": 20}, {"measurement": "Plant response rating, Surinam grass", "setting": "[13]; [26]", "result": 50}, {"measurement": "Plant response rating, Surinam grass", "setting": "[13]; [27]", "result": 70}, {"measurement": "Plant response rating, Cupgrass, Woolly", "setting": "[14]; Rate 62 g/ha, scale 0 to 100", "result": 40}, {"measurement": "Plant response rating, Cupgrass, Woolly", "setting": "[14]; [26]", "result": 60}, {"measurement": "Plant response rating, Cupgrass, Woolly", "setting": "[14]; [27]", "result": 70}, {"measurement": "Plant response rating, Velvetleaf", "setting": "[15]; Rate 62 g/ha, scale 0 to 100", "result": 40}, {"measurement": "Plant response rating, Velvetleaf", "setting": "[15]; [26]", "result": 80}, {"measurement": "Plant response rating, Velvetleaf", "setting": "[15]; [27]", "result": 90}, {"measurement": "Plant response rating, Velvetleaf", "setting": "[15]; scale 0 to 100", "result": 40}, {"measurement": "Plant response rating, Soybean", "setting": "[16]; Rate 62 g/ha, scale 0 to 100", "result": 60}, {"measurement": "Plant response rating, Soybean", "setting": "[16]; [26]", "result": 100}, {"measurement": "Plant response rating, Soybean", "setting": "[16]; [27]", "result": 100}, {"measurement": "Plant response rating, Cocklebur", "setting": "[17]; Rate 62 g/ha, scale 0 to 100", "result": 20}, {"measurement": "Plant response rating, Cocklebur", "setting": "[17]; [26]", "result": 90}, {"measurement": "Plant response rating, Cocklebur", "setting": "[17]; [27]", "result": 90}, {"measurement": "Plant response rating, Bermudagrass", "setting": "[18]; Rate 62 g/ha, scale 0 to 100", "result": 20}, {"measurement": "Plant response rating, Bermudagrass", "setting": "[18]; [24]", "result": 40}, {"measurement": "Plant response rating, Bermudagrass", "setting": "[18]; [26]", "result": 70}, {"measurement": "Plant response rating, Bermudagrass", "setting": "[18]; [27]", "result": 80}, {"measurement": "Plant response rating, Nutsedge", "setting": "[19]; Rate 62 g/ha, scale 0 to 100", "result": 0}, {"measurement": "Plant response rating, Nutsedge", "setting": "[19]; [26]", "result": 0}, {"measurement": "Plant response rating, Nutsedge", "setting": "[19]; [27]", "result": 0}, {"measurement": "Plant response rating, Kochia", "setting": "[20]; Rate 62 g/ha, scale 0 to 100", "result": 40}, {"measurement": "Plant response rating, Kochia", "setting": "[20]; [26]", "result": 90}, {"measurement": "Plant response rating, Kochia", "setting": "[20]; [27]", "result": 90}, {"measurement": "Plant response rating, Johnsongrass", "setting": "[21]; Rate 62 g/ha, scale 0 to 100", "result": 0}, {"measurement": "Plant response rating, Johnsongrass", "setting": "[21]; [26]", "result": 30}, {"measurement": "Plant response rating, Johnsongrass", "setting": "[21]; [27]", "result": 30}, {"measurement": "Plant response rating, Johnsongrass", "setting": "[21]; rate not given, scale 0 to 100", "result": 10}, {"measurement": "Plant response rating, Foxtail, Giant", "setting": "[22]; Rate 62 g/ha, scale 0 to 100", "result": 30}, {"measurement": "Plant response rating, Foxtail, Giant", "setting": "[22]; [26]", "result": 80}, {"measurement": "Plant response rating, Foxtail, Giant", "setting": "[22]; [27]", "result": 90}, {"measurement": "Plant response rating, Pigweed", "setting": "[23]; Rate 62 g/ha, scale 0 to 100", "result": 70}, {"measurement": "Plant response rating, Pigweed", "setting": "[23]; [26]", "result": 70}, {"measurement": "Plant response rating, Pigweed", "setting": "[23]; [27]", "result": 90}]}]}
